“Also recorded” adds a separate entry of the source. Read-outs that look alike come from different tables or passages of the source. *1 amine or outer side, *2 acyl side, *3 side chain or, on linkers, in order; H or OH if unused. Where a SMILES comes first, the peptide text is derived from it. Side-chain parts run from the residue outwards. [ ]: non-standard residue; d: D form. The star is where a group is joined. C20 diacid = O=C(O)CCCCCCCCCCCCCCCCCCC(=O)*; C18 diacid = O=C(O)CCCCCCCCCCCCCCCCC(=O)*; γGlu = O=C(O)[C@H](CCC(=O)[*:2])N[*:1]; εLys = N[C@@H](CCCCN[*:1])C(=O)[*:2]; AEEA = NCCOCCOCC(=O)O; Aib = CC(C)(N)C(=O)O
Legend:
[1] = Pharmacokinetic study in minipigs, i.v. administration; design: species or system Göttingen minipigs; conditions: female, Göttingen, minipig, in vivo, iv
Method in brief: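 Terminal half-life, reported as harmonic mean, came from non-compartmental fits of plasma levels measured by antibody assay or LCMS over up to 14 days. Dosing was i.v., typically 1.5-2 nmol/kg, through implanted caval catheters in fasted female Göttingen minipigs of 16-35 kg.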

human Gcg receptor = target: T1, human Gcg receptor (Homo sapiens, UniProt P47871); assay: In vitro functional potency (CRE luciferase; whole cells), human GcgR; type: cell-based; conditions: BHK CRE luc2P hGcgR whole cells; Table 1, position of substituent varied; read-out: hGcgR CRE Luc EC50
T1 construct: expressed in transfected cells; host or cells: BHK cells (parent line BHKTS13) containing CRE luciferase
Description: (§5) The purpose of this example is to test the functional activity, or potency, of the compounds in vitro at the human and mouse GLP-1, GIP, and Gcg receptors. The in vitro functional potency is the measure of target receptor activation in a whole cell assay.
(§6) In vitro functional potency was determined by measuring the response of the target receptor in a reporter gene assay in individual cell lines. The assay was performed in stably transfected BHK cell lines that expresses one of the following G-protein coupled receptors: human GLP-1 receptor, human GIP receptor, human Gcg receptor, mouse GLP-1 receptor, mouse GIP receptor, or mouse Gcg receptor; and where each cell line contains the DNA for the cAMP response element (CRE) coupled to a promoter and the gene for firefly luciferase (CRE luciferase). When the respective receptor is activated, it results in the production of cAMP, which in turn results in expression of the luciferase protein. When assay incubation is completed, luciferase substrate (luciferin) is added resulting in the enzymatic conversion of luciferin to oxyluciferin and producing bioluminescence. The luminescence is measured as the readout for the assay.
(§7) The cells lines used in these assays were BHK cells with BHKTS13 as a parent cell line. The cell lines were derived from a clone containing the CRE luciferase element and were established by further transfection with the respective receptor to obtain the relevant cell line.
(§8) The cells were cultured at 37° C. with 5% CO2 in Cell Culture Medium. They were aliquoted and stored in liquid nitrogen. The cells were kept in continuous culture and were seeded out the day before each assay.
(§9) GLP-1R and GcgR Cell Culture Medium consisted of DMEM medium with 10% FBS, 500 µg/mL G418, and 300 µg/mL hygromycin. GIPR Cell Culture Medium consisted of DMEM medium with 10% FBS, 400 µg/mL G418, and 300 µg/mL hygromycin. Assay Buffer consisted of DMEM w/o phenol red, 10 mM Hepes, 1× Glutamax, 1% ovalbumin, and 0.1% Pluronic F-68.
(§10) • 1) Cells were plated at 5000 cells/well and incubated overnight in the assay plate. • 2) Cells were washed once in DPBS. • 3) Stocks of the test compounds and reference compounds in concentrations ranging from 100-300 pM were diluted 1:150 in Assay Buffer.
(§11) The data from the microtiter plate reader was first regressed in an Excel in order to calculate the x-axis, log scale concentrations based on the individual test compound's stock concentration and the dilutions of the assay. […] The software performs a non-linear regression (log(agonist) vs response). A minimum of two replicates was measured for each sample. The reported values are averages of the replicates.

human GIP receptor = target: T2, human GIP receptor (Homo sapiens, UniProt P48546); assay: In vitro functional potency (CRE luciferase; whole cells), human GIPR; type: cell-based; conditions: BHK CRE luc2P hGIPR whole cells; Table 1, position of substituent varied; read-out: hGIPR CRE Luc EC50
T2 construct: expressed in transfected cells; host or cells: BHK cells (parent line BHKTS13) containing CRE luciferase
T2 sequence (P48546 22-466): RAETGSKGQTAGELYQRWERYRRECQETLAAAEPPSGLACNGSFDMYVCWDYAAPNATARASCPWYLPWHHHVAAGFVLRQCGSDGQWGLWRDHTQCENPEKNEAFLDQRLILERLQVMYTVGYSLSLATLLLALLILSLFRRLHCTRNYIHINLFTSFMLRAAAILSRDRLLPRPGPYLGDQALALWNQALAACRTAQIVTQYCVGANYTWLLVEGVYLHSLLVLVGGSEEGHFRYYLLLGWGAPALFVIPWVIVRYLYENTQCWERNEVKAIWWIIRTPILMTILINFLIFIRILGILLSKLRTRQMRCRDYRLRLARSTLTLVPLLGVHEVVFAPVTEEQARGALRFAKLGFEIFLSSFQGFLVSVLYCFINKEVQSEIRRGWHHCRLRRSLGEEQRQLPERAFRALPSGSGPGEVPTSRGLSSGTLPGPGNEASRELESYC
Description: as §5, §6, §7, §8, §9, §10, §11

human GLP-1 receptor = target: T3, human GLP-1 receptor (Homo sapiens, UniProt P43220); assay: In vitro functional potency (CRE luciferase; whole cells), human GLP-1R; type: cell-based
T3 construct: expressed in transfected cells; host or cells: BHK cells (parent line BHKTS13) containing CRE luciferase

[2] = IPGTT (intraperitoneal glucose tolerance test) in DIO mice; type: in vivo, C57BL/6J male mice; conditions: for iAUC, IPGTT (min*mg/dL) Day 14: i.p. glucose 2 g/kg, baseline subtracted AUC
Description: (§1) The purpose of this example is to assess the in vivo effect of selected triple agonists on pharmacodynamic parameters in diet-induced obese (DIO) mice. The animals were treated once daily via subcutaneous injection with a liquid formulation of the triple agonist to be tested to assess effects on body weight, foot intake, and glucose tolerance.
(§2) C57BL/6J male mice were purchased from Jackson Laboratories at approximately 8 weeks of age. Mice were group housed and fed a high-fat, high-sugar diet from Research Diets (D12331). Mice were maintained on this diet for 12 weeks prior to initializing the pharmacology studies. Mice exceeding a measured body weight of 50 grams were considered diet-induced obese (DIO) and included in pharmacology studies. Mice were exposed to a controlled 12 h:12 h light:dark cycle at ambient room temperature (22° C.) with ab libitum access to food and water. Studies were approved by and performed according to the guidelines of the Institutional Animal Care and Use Committee of the University of Cincinnati.
(§3) All compounds in the study were formulated in the following buffer: 50 mM phosphate; 70 mM sodium chloride; 0.05% Tween-80, pH 7.4. Dosing solutions were formulated in glass vials and stored at 2-8° C. Dosing solutions were brought to room temperature before dosing and returned to 2-8° C. after dosing.
(§4) DIO mice were distributed into groups (n=8 per group) such that statistical variations in the mean and standard deviations of fat mass and body weight were minimized between groups. The animals were grouped to receive treatment as follows: Vehicle or GLP-1/GIP/Gcg receptor triple agonists as described herein, where vehicle is 50 mM phosphate, 70 mM sodium chloride; 0.05% (v/v) Tween-80, pH 7.4. The test compounds were dissolved in the vehicle, to stock concentrations of […], then diluted 50- to 200-fold in the vehicle to achieve the desired dosing solution concentrations. Animals were dosed subcutaneously once daily in the morning for each day of treatment with dosing solution at a volume of 2-5 μL per gram of body weight as necessary to achieve the desired dose (e.g. 0.3 nmol/kg, 1.0 nmol/kg, or 3.0 nmol/kg).
On the day of the glucose tolerance test, animals were fasted for 4 h. Food was removed and animals were transferred to fresh cages. Animals had access to water but not to food. Tail blood glucose levels were measured, and mice were injected (t=0) with an intraperitoneal (i.p.) glucose load of 2 g/kg (200 mg/ml glucose solution, dose volume 10 ml/kg). Tail blood glucose levels were measured at times 0, 15, 30, 60, 90, 120 minutes following the i.p. glucose load. Stratification of the animals during the IPGTT was such that for example two mice from group 1 are dosed followed by two mice from group 2, 3, 4, before the next two mice from group 1, 2, 3 etc. were handled. This was to allow for equal distribution of “time of day” throughout all groups.

[3] = Pharmacodynamic study in DIO mice, daily s.c. dosing over 13 days (body weight, food intake); type: in vivo, C57BL/6J male mice; conditions: for Absolute BW (grams) Day 0: Day 0 (baseline); for Cumulative food intake (grams) Day 13: mean ± SEM, n = 2; for reduction in body weight (in words) / reduction in food intake (in words): daily s.c. dosing over 13 days, compared to vehicle
Description: as §1, §2, §3
as §4, with “The” for “DIO mice were distributed into groups (n=8 per group) such that statistical variations in the mean and standard deviations of fat mass and body weight were minimized between groups. The”
Body weight (BW) and food intake were measured immediately prior to dosing each day. The percent change in body was calculated individually for each mouse based on initial body weight prior to the first injection.

T3 sequence (P43220 24-463): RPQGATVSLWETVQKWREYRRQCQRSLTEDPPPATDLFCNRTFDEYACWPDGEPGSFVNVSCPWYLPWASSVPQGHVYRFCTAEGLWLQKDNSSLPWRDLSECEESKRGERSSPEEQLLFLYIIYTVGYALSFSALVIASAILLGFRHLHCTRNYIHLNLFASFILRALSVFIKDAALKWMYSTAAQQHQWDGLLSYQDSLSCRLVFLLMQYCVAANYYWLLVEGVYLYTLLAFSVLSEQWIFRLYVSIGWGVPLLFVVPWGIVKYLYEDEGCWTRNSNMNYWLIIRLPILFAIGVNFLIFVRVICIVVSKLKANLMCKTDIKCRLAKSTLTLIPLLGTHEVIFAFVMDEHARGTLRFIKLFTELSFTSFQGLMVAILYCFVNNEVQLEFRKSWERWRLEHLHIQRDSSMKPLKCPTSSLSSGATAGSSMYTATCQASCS
T1 sequence (P47871 26-477): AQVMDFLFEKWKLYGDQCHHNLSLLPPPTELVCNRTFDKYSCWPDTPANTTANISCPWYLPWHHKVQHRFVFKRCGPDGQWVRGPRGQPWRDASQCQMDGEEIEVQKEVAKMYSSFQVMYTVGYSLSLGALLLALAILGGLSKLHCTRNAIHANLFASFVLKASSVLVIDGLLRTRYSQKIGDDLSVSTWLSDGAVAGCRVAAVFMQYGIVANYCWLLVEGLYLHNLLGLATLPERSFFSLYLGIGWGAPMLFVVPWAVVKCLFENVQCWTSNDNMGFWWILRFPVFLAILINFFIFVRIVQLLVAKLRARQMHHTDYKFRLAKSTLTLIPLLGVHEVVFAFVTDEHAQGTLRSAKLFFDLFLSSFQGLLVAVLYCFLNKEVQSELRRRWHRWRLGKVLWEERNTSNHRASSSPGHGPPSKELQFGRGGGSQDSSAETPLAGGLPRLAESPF

| Compound | iAUC, IPGTT (min*mg/dL) Day 14 ([2]; 1.0 nmol/kg s.c. once daily) | EC50 (human GLP-1 receptor) | Absolute BW (grams) Day 0 ([3]; 1.0 nmol/kg group) | Absolute BW (grams) Day 13 ([3]; 1.0 nmol/kg s.c. once daily) | Change in BW (%) Day 13 ([3]; 1.0 nmol/kg s.c. once daily) | Cumulative food intake (grams) Day 13 ([3]; 1.0 nmol/kg s.c. once daily) | reduction in body weight (in words) [3] | reduction in food intake (in words) [3] | further results |
| --- | --- | --- | --- | --- | --- | --- | --- | --- | --- |
| CC[C@H](C)[C@H](NC(=O)[C@H](CO)NC(=O)[C@H](Cc1ccc(O)cc1)NC(=O)[C@H](CC(=O)O)NC(=O)[C@H](CO)NC(=O)[C@@H](NC(=O)[C@H](Cc1ccccc1)NC(=O)[C@@H](NC(=O)CNC(=O)[C@H](CCC(N)=O)NC(=O)C(C)(C)NC(=O)[C@@H](N)Cc1ccc(O)cc1)[C@@H](C)O)[C@@H](C)O)C(=O)N[C@@H](Cc1ccc(O)cc1)C(=O)N[C@@H](CC(C)C)C(=O)N[C@@H](CC(=O)O)C(=O)N[C@@H](CCCCN)C(=O)N[C@@H](CCC(N)=O)C(=O)N[C@@H](C)C(=O)N[C@@H](C)C(=O)NC(C)(C)C(=O)N[C@@H](CCCCNC(=O)COCCOCCNC(=O)COCCOCCNC(=O)CC[C@H](NC(=O)CCCCCCCCCCCCCCCCC(=O)O)C(=O)O)C(=O)N[C@@H](Cc1ccccc1)C(=O)N[C@H](C(=O)N[C@@H](CC(N)=O)C(=O)N[C@@H](Cc1c[nH]c2ccccc12)C(=O)N[C@@H](CC(C)C)C(=O)N[C@@H](CC(C)C)C(=O)N[C@@H](C)C(=O)NCC(=O)NCC(=O)N1CCC[C@H]1C(=O)N[C@@H](CO)C(=O)N[C@@H](CO)C(=O)NCC(=O)N[C@@H](C)C(=O)N1CCC[C@H]1C(=O)N1CCC[C@H]1C(=O)N1CCC[C@H]1C(=O)N[C@@H](CO)C(N)=O)C(C)C [Compound No. 3] (H-Y[Aib]QGTFTSDYSIYLDKQAA[Aib]K([AEEA-AEEA-γGlu-C18 diacid])FVNWLLAGGPSSGAPPPS-NH2; N-terminus assumed) |  |  |  |  |  |  |  |  | half-life [1]: 33 h; EC50 (human Gcg receptor): 34.7 pM; EC50 (human GIP receptor): 27.5 pM; EC50 (human GLP-1 receptor; BHK CRE luc2P hGLP-1R whole cells, Table 1, position of substituent varied, read-out: hGLP-1R CRE Luc EC50): 5.4 pM |
| CC(C)C[C@H](NC(=O)[C@H](CC(C)C)NC(=O)[C@H](Cc1c[nH]c2ccccc12)NC(=O)[C@H](CCC(N)=O)NC(=O)[C@@H](NC(=O)[C@H](Cc1ccccc1)NC(=O)[C@H](CCC(=O)O)NC(=O)C(C)(C)NC(=O)[C@H](C)NC(=O)[C@H](C)NC(=O)[C@H](CCC(N)=O)NC(=O)[C@H](CCCCNC(=O)[C@@H](N)CCCCNC(=O)[C@@H](N)CCCCNC(=O)CC[C@H](NC(=O)CCCCCCCCCCCCCCCCCCC(=O)O)C(=O)O)NC(=O)[C@H](CCC(=O)O)NC(=O)[C@H](CC(C)C)NC(=O)[C@H](Cc1ccc(O)cc1)NC(=O)[C@H](Cc1ccc(O)cc1)NC(=O)[C@H](CO)NC(=O)[C@H](Cc1ccc(O)cc1)NC(=O)[C@H](CC(=O)O)NC(=O)[C@H](CO)NC(=O)[C@@H](NC(=O)[C@H](Cc1ccccc1)NC(=O)[C@@H](NC(=O)CNC(=O)[C@H](Cc1c[nH]cn1)NC(=O)C(C)(C)NC(=O)[C@@H](N)Cc1c[nH]cn1)[C@@H](C)O)[C@@H](C)O)C(C)C)C(=O)N[C@@H](CCC(=O)O)C(=O)NCC(=O)NCC(=O)N1CCC[C@H]1C(=O)N[C@@H](CO)C(=O)N[C@@H](CO)C(=O)NCC(=O)N[C@@H](C)C(=O)N1CCC[C@H]1C(=O)N1CCC[C@H]1C(=O)N1CCC[C@H]1C(=O)N[C@@H](CO)C(N)=O [Compound No. 26] (H-H[Aib]HGTFTSDYSYYLEK([εLys-εLys-γGlu-C20 diacid])QAA[Aib]EFVQWLLEGGPSSGAPPPS-NH2; N-terminus assumed) | 8789 ± 1521 mg·min/dL | 3.1 pM | 60.7 ± 1.9 grams | 51.6 ± 2.2 grams | −15.6 ± 0.9% | 20.1 ± 3.4 grams | superior reduction | superior reduction | half-life ([1]; minipigs, i.v. administration, harmonic mean, read-out: Terminal half-life t1/2 (converted)): 80 h |
| CC[C@H](C)[C@H](NC(=O)[C@H](CO)NC(=O)[C@H](Cc1ccc(O)cc1)NC(=O)[C@H](CC(=O)O)NC(=O)[C@H](CO)NC(=O)[C@@H](NC(=O)[C@H](Cc1ccccc1)NC(=O)[C@@H](NC(=O)CNC(=O)[C@H](Cc1c[nH]cn1)NC(=O)C(C)(C)NC(=O)[C@@H](N)Cc1c[nH]cn1)[C@@H](C)O)[C@@H](C)O)C(=O)N[C@@H](Cc1ccc(O)cc1)C(=O)N[C@@H](CC(C)C)C(=O)N[C@@H](CCC(=O)O)C(=O)N[C@@H](CCCCNC(=O)COCCOCCNC(=O)COCCOCCNC(=O)CC[C@H](NC(=O)CCCCCCCCCCCCCCCCCCC(=O)O)C(=O)O)C(=O)N[C@@H](CCC(N)=O)C(=O)N[C@@H](C)C(=O)N[C@@H](C)C(=O)NC(C)(C)C(=O)N[C@@H](CCC(=O)O)C(=O)N[C@@H](Cc1ccccc1)C(=O)N[C@H](C(=O)N[C@@H](CCC(N)=O)C(=O)N[C@@H](Cc1c[nH]c2ccccc12)C(=O)N[C@@H](CC(C)C)C(=O)N[C@@H](CC(C)C)C(=O)N[C@@H](CCC(=O)O)C(=O)NCC(=O)NCC(=O)N1CCC[C@H]1C(=O)N[C@@H](CO)C(=O)N[C@@H](CO)C(=O)NCC(=O)N[C@@H](C)C(=O)N1CCC[C@H]1C(=O)N1CCC[C@H]1C(=O)N1CCC[C@H]1C(=O)N[C@@H](CO)C(N)=O)C(C)C [Compound No. 44] (H-H[Aib]HGTFTSDYSIYLEK([AEEA-AEEA-γGlu-C20 diacid])QAA[Aib]EFVQWLLEGGPSSGAPPPS-NH2; N-terminus assumed) | 14606 ± 2410 mg·min/dL | 1.8 pM | 60.8 ± 1.1 grams | 52.7 ± 1.3 grams | −13.4 ± 0.9% | 24.8 ± 1.8 grams | superior reduction; also recorded: dose-dependent effect | superior reduction; also recorded: dose-dependent effect | iAUC, IPGTT (min*mg/dL) Day 14 ([2]; 0.3 nmol/kg s.c. once daily): 25356 ± 4338 mg·min/dL; glucose tolerance compared to vehicle (in words) ([2]; 1.0 nmol/kg and 3.0 nmol/kg doses): improved glucose tolerance; iAUC, IPGTT (min*mg/dL) Day 14 ([2]; 3.0 nmol/kg s.c. once daily): 15161 ± 2257 mg·min/dL; Absolute BW (grams) Day 0 ([3]; 0.3 nmol/kg group): 59.2 ± 1.2 grams; Absolute BW (grams) Day 13 ([3]; 0.3 nmol/kg s.c. once daily): 56.9 ± 1.5 grams; Change in BW (%) Day 13 ([3]; 0.3 nmol/kg s.c. once daily): −3.9 ± 1.1%; Cumulative food intake (grams) Day 13 ([3]; 0.3 nmol/kg s.c. once daily): 28.0 ± 0.6 grams; Absolute BW (grams) Day 0 ([3]; 3.0 nmol/kg group): 60.6 ± 1.1 grams; Absolute BW (grams) Day 13 ([3]; 3.0 nmol/kg s.c. once daily): 43.1 ± 1.8 grams; Change in BW (%) Day 13 ([3]; 3.0 nmol/kg s.c. once daily): −29.1 ± 2.3%; Cumulative food intake (grams) Day 13 ([3]; 3.0 nmol/kg s.c. once daily): 12.4 ± 1.5 grams |
